The record followed here is paper PMC5469522.

The series in a line: Non-covalent ring closure: intramolecular phenol OH...acceptor H-bond (folding of AD 2-mers; acceptor is phosphine oxide, pyridine or pyridine N-oxide). EMf = Kfold/K(A.D); Kfold inferred from NMR dilution Kobs(AD.AD) versus Kobs(AA.DD). Particulars: the molecule shown is the open-chain precursor, toluene-d8 (C7-PO in CDCl3), 25.0 °C.

For the setting “17-membered ring”, `CCCCP(=O)(CCCC)c1cccc(C#Cc2cc(C#Cc3cccc(O)c3)cc(OCC[C@@H](C)CCC=C(C)C)c2)c1` [C7-PO (44), CDCl3] showed a ring closure, effective molarity of 0 mM.

Under “18-membered ring”, `CCCCC(CC)COc1ccc(N(Cc2ccc(O)cc2)Cc2cc([N+](=O)[O-])ccc2OCC(CC)CCCC)cc1CN(Cc1ccncc1)c1ccc(OCC(CC)CCCC)c(C2OCCO2)c1` (stereo not shown) [C8-N (21)] yielded a ring closure, effective molarity of 0 mM.

`CCCCC(CC)COc1ccc(N(Cc2ccc(O)cc2)Cc2cc([N+](=O)[O-])ccc2OCC(CC)CCCC)cc1CN(Cc1cc[n+]([O-])cc1)c1ccc(OCC(CC)CCCC)c(C2OCCO2)c1` (stereo not shown) [C8-NO (13)] returned a ring closure, effective molarity (19-membered ring) of 0 mM.

Regarding `CCCCC(CC)COc1ccc(N(Cc2ccc(O)cc2)Cc2cc([N+](=O)[O-])ccc2OCC(CC)CCCC)cc1CN(Cc1ccc(OCP(=O)(C(C)(C)C)C(C)(C)C)cc1)c1ccc(OCC(CC)CCCC)c(C2OCCO2)c1` (stereo not shown) [C8-PO (16)], for the setting “22-membered ring”, the ring closure, effective molarity was 7 mM.

Where the note is “21-membered ring”, `CCCCP(=O)(CCCC)c1ccc(C[C@@H](CCSCC[C@H](CCSC(C)=O)Cc2ccc(O)cc2)CCSC(C)(C)C)cc1` [C9-PO (33)] displayed a ring closure, effective molarity of 7 mM.

On to `CCCCC(CC)COc1cc(CN(Cc2ccccc2OC)c2ccc(O)cc2)cc(CN(Cc2ccccc2OC)c2ccc(OCP(=O)(C(C)(C)C)C(C)(C)C)cc2)c1` (stereo not shown) [N7-PO (29)], for which the ring closure, effective molarity (21-membered ring) turned out to be 15 mM.

As to `CCCCC(CC)COc1cc(CN(Cc2ccccc2OC)c2ccc(OCP(=O)(C(C)(C)C)C(C)(C)C)cc2)c(OCC(CC)CCCC)cc1CN(Cc1ccccc1OC)c1ccc(O)cc1` (stereo not shown) [N8-PO (26)], for the setting “22-membered ring”, the ring closure, effective molarity was determined as 3 mM.
